From ChEMBL document CHEMBL1833795, “Discovery of potent, metabolically stable purine CRF-1 antagonists with differentiated binding kinetic profiles” (Bioorg Med Chem Lett, 2011) come the findings set out here.

In data set [1] the target is T1, Corticotropin-releasing factor receptor 1 (Homo sapiens) (UniProt P34998).
T1 sequence (whole entry): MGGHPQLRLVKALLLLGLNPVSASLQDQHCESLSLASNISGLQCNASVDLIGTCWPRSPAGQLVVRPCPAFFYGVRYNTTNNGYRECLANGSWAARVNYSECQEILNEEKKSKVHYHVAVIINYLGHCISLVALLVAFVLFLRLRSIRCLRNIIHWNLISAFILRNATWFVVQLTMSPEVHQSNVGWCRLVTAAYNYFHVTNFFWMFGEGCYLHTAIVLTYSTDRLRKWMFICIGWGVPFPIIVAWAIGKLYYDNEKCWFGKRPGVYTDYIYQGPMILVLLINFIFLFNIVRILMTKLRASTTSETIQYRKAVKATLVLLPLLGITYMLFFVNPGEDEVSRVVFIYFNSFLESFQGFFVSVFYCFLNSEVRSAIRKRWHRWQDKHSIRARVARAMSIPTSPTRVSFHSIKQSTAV
Conditions: CHO.
Description: Antagonist activity at recombinant human CRF1 receptor expressed in CHO cells assessed as dissociation half life

For data set [2], the target named is T2, Corticotropin-releasing factor receptor 1 (Homo sapiens, UniProt P34998).
T2 sequence (P34998 whole entry): T1 sequence (whole entry)
In words: Antagonist activity at recombinant human CRF1 receptor expressed in CHO cells assessed as inhibition of CRF-induced cAMP formation. The class given is functional, cell-based.

For data set [3], the system named is Liver microsomes. In words: Intrinsic clearance in human liver microsomes assessed per mg of protein. The class given is ADME, Microsome.
Data set [4] has as its system Liver microsomes. In words: Intrinsic clearance in rat liver microsomes assessed per mg of protein. Type of data set: ADME, Microsome.
Data set [5] addresses T2, Corticotropin-releasing factor receptor 1. The data set can be described thus: Binding affinity to recombinant human CRF1 receptor expressed in CHO cells. The class given is cell-based.
Data set [6] can be described thus: Clearance in rat at 0.1 mg/kg. Type of data set: ADME, organism-based. Also noted: dose 0.1 mg/kg. Particulars: in vivo.
Data set [7] is described as follows: Volume of distribution at steady state in rat at 0.1 mg/kg. Conditions: in vivo, read-out: Vdss. The arrangement: dose 0.1 mg/kg. Type of data set: ADME, organism-based.
A short description of data set [8]: Half life in rat at 0.1 mg/kg. Type of data set: ADME, organism-based. Conditions: in vivo. The arrangement: dose 0.1 mg/kg.
Data set [9] can be described thus: Oral bioavailability in rat at 8 mg/kg. The class given is ADME, organism-based. Particulars: in vivo.

Regarding `CCCN(CCC)c1cc(C)nc2c(-c3cnc(N(C)C)cc3C)c(C)nn12`, the T1/2 in [1] was 12.8 h.

Take `COc1ccc(-n2c(C)nc3c(NC(C4CC4)C4CC4)nc(C)nc32)c(Cl)c1`: the Ki in [2] was 0.012 µM.

For `Cc1nc(NC(C2CC2)C2CC2)c2nc(C)n(-c3ccc(C#N)cc3)c2n1`, the Ki in data set [2] turned out to be 0.062 µM. For the same compound, the clearance is 16 µL/min/mg in the data set on Liver microsomes [3] and 22 µL/min/mg in the data set on Liver microsomes [4].

With `Cc1nc(NC(C2CC2)C2CC2)c2nc(C)n(-c3ccc(Cl)cc3)c2n1`, in data set [2], the inhibitory constant (Ki) came out at 0.011 µM. The clearance was 28 µL/min/mg in the data set with Liver microsomes [3] and under 8.5 µL/min/mg in the data set with Liver microsomes [4].

In the case of `COc1ccc(-n2c(C3CCCO3)nc3c(NC(C4CC4)C4CC4)nc(C)nc32)cc1` (racemic), the Ki in [2] stood at 0.867 µM.

With `COc1ccc(-n2ncc3c(NC(C4CC4)C4CC4)nc(C)nc32)c(C)c1`, the Ki in data set [2] is 0.032 µM. Further, the clearance in the data set on Liver microsomes [3] is under 11 µL/min/mg; in the data set with Liver microsomes [4], 25 µL/min/mg.

`CCOc1ccc(-n2c(C)nc3c(NC(C4CC4)C4CC4)nc(C)nc32)cc1`: the inhibitory constant (Ki) in data set [2] worked out at 0.02 µM. Moreover, the clearance in the data set with Liver microsomes [3] turned out to be 16 µL/min/mg; with Liver microsomes [4] it was 29 µL/min/mg.

Regarding `COc1ccc(-n2c(C)nc3c(NC(C4CC4)C4CC4)nc(C)nc32)cc1`, the Ki in data set [2] is 0.019 µM. In addition, the clearance was under 10 µL/min/mg with Liver microsomes [3], 20 µL/min/mg with Liver microsomes [4] and 0.24 L/h/kg in data set [6]. The Kd in data set [5] amounted to 0.012 µM. In addition, the Vd in [7] was 2 L/kg. For the same compound, the half-life in [8] was 2.7 h. In data set [1], the T1/2 amounted to 0.5 h.

As to `Cc1nc(NC(C2CC2)C2CC2)c2nc(C)n(-c3ccc(OC(F)(F)F)cc3)c2n1`, in data set [2], the Ki is 0.009 µM. Further, the clearance with Liver microsomes [3] is 17 µL/min/mg; with Liver microsomes [4], 27 µL/min/mg.

`CCC(CC)Nc1cc(C)nc2c(-c3ccc(OC)cc3C)c(C)nn12`: in data set [2], the inhibitory constant (Ki) came to 0.0015 µM. Moreover, the Kd in data set [5] came to 0.000279 µM. The compound also gave a T1/2 in [1] of 5.5 h.

For `Cc1nc(NC(C2CC2)C2CC2)c2nc(C)n(-c3ccc(OC(F)F)cc3Cl)c2n1`, the inhibitory constant (Ki) in data set [2] was 0.000373 µM. Also, the clearance was found to be 18 µL/min/mg in the data set with Liver microsomes [3], 51 µL/min/mg with Liver microsomes [4] and 0.48 L/h/kg in data set [6]. In addition, the Kd in data set [5] was 0.000373 µM. Further, the Vd in data set [7] amounted to 4.5 L/kg. The half-life in data set [8] is 6.4 h. Besides, the T1/2 in data set [1] is 6.2 h.

Take `COc1cc(OC(F)F)ccc1-n1c(C)nc2c(NC(C3CC3)C3CC3)nc(C)nc21`: the Ki in data set [2] stood at 0.000291 µM. For the same compound, the clearance in the data set on Liver microsomes [3] was 19 µL/min/mg; in the data set with Liver microsomes [4] it was 38 µL/min/mg; in data set [6] it was 0.54 L/h/kg. In addition, the Kd in [5] amounted to 0.000291 µM. Further, the Vd in data set [7] was found to be 8.2 L/kg. The half-life in data set [8] was 10 h. Also, the bioavailability in [9] turned out to be 52%. The same compound showed a T1/2 in [1] of 10.7 h.

Consider `Cc1nc(NC(C2CC2)C2CC2)c2nc(C)n(-c3ccc(OC(F)F)cc3)c2n1`, for which the inhibition constant (Ki) in [2] stood at 0.005 µM. Moreover, the clearance in the data set on Liver microsomes [3] worked out at 15 µL/min/mg; in the data set on Liver microsomes [4], 17 µL/min/mg; in [6], 0.18 L/h/kg. In [5], the Kd turned out to be 0.003 µM. For the same compound, in data set [7], the Vd was found to be 2 L/kg. Further, the half-life in data set [8] is 11 h. Moreover, the T1/2 in data set [1] came out at 1 h.

Consider `COCc1nc2c(NC(C3CC3)C3CC3)nc(C)nc2n1-c1ccc(OC)cc1`, for which the Ki in data set [2] stood at 0.157 µM.

For `COc1ccc(-n2c(CC3CC3)nc3c(NC(C4CC4)C4CC4)nc(C)nc32)cc1`, the Ki in data set [2] is 0.308 µM.

Regarding `Cc1nc(NC(C2CC2)C2CC2)c2nc(C)n(-c3ccc(S(C)(=O)=O)cc3)c2n1`, the Ki in data set [2] was found to be 0.14 µM. This compound displayed a clearance in the data set with Liver microsomes [3] of under 9 µL/min/mg.

In the case of `Cc1nc(NC(C2CC2)C2CC2)c2nc(C)n(-c3ccc(OC(F)F)cc3F)c2n1`, the Ki in data set [2] came out at 0.007 µM.

Turning to `CCCN(CCOC)c1nc(C)nc2c1c(C)nn2-c1ccc(OC)cc1C`, the clearance with Liver microsomes [3] came out at 172 µL/min/mg; in the data set with Liver microsomes [4] it was 23 µL/min/mg. Also, the dissociation constant Kd in [5] turned out to be 0.014 µM. Besides, in [1], the T1/2 came out at 0.3 h.

For the compound `COc1ccc(-n2c(C3CC(F)(F)C3)nc3c(NC(C4CC4)C4CC4)nc(C)nc32)cc1`, the Ki in [2] was 0.261 µM.

Consider `COc1ccc(-n2c(CC(C)C)nc3c(NC(C4CC4)C4CC4)nc(C)nc32)cc1`, for which the Ki in data set [2] was found to be 0.607 µM.

For the compound `Cc1nc(NC(C2CC2)C2CC2)c2nc(C)n(-c3ccc(F)cc3)c2n1`, in data set [2], the inhibition constant (Ki) amounted to 0.091 µM. The values for the clearance with Liver microsomes [3] and in the data set with Liver microsomes [4] were 15 µL/min/mg and under 8.5 µL/min/mg, respectively.

In the case of `COc1ccc(-n2c(C)nc3c(NC(C4CC4)C4CC4)nc(C)nc32)c(C)c1`, the Ki in [2] was found to be 0.014 µM. The clearance in the data set with Liver microsomes [3] is 10 µL/min/mg; with Liver microsomes [4], 37 µL/min/mg.

As for `COc1ccc(-n2cnc3c(NC(C4CC4)C4CC4)nc(C)nc32)c(C)c1`, the Ki in [2] was found to be 0.047 µM. Besides, the clearance in the data set with Liver microsomes [3] was determined as 21 µL/min/mg; with Liver microsomes [4], 48 µL/min/mg.
